Laboratory results: patent publication US11358977B2, “Deuterated pyridone amides and prodrugs thereof as modulators of sodium channels” (VERTEX PHARMACEUTICALS INCORPORATED, priority 2017, dated 2022)

Test: In vivo pharmacokinetic study, rat IV
Parameters: species or system Male Sprague Dawley rats
Method: General Procedures. Concentrations of the test compounds in plasma were determined using a high performance liquid chromatography/tandem mass spectrometry (HPLC/MS/MS) method. The test compounds along with the internal standard (IS) were extracted from plasma (20 μL) by direct protein precipitation with acetonitrile (1:25 ratio of plasma/acetonitrile). After centrifugation, the supernatant extract (10 μL) was injected onto the LC/MS/MS system. The HPLC system included a Phenomenex Luna C8 column, 3 micron, 2 mm diameter×30 mm long eluted with a gradient mobile phase consisting of 0.1% formic acid in water or in acetonitrile. The analytes were detected by MS/MS with Electrospray Ionization (ESI) in the mode of multiple reaction monitoring (MRM). The lower limit of quantitation (LLOQ) was 1.00 ng/mL. The linear range of the assay was from 1 to 3000 ng/mL. The assay accuracy was within 20% of the nominal values.
Plasma concentration-time profiles of the test compounds were analyzed by noncompartmental pharmacokinetic methods using PK module in Watson, Version 7.4.2 (Thermo Scientific). Pharmacokinetic parameters including AUCa11, AUC0-∞, C0, Cl, Vss and t1/2 were determined.
Descriptive statistical data of plasma concentrations and pharmacokinetic parameter estimates were calculated, including the mean, standard deviation (SD), and coefficient of variation (% CV) using Microsoft Excel 2010.
Rat IV Study. Compounds 7 and 10 were administered simultaneously in a single intravenous bolus to Male Sprague Dawley rats (n=3) via jugular cannula. The nominal dose of each compound was 0.5 mg/kg. The cassette dosing solution was formulated in D5W with additives Animals had free access to food and water before and after dosing. Blood samples (approximately 0.25 mL each) were collected via a carotid artery catheter prior to dosing and at 0 (predose), 5 min, 10 min, 0.25, 0.5, 1, 2, 4, 8, 12, 24 hours post dose. Each blood sample was collected into a tube that was kept on wet ice and contained potassium EDTA as the anticoagulant. Plasma was separated and stored at approximately −70° C. until analysis.
Plasma samples and dosing solutions were analyzed using a liquid chromatography/tandem mass spectrometry (LC/MS/MS) method to determine the concentrations of Compounds 7 and 10 with a lower limit of quantitation (LLOQ) of 1.00 ng/mL. The average plasma concentrations of Compounds 7 and 10 are plotted in FIG. 5 and are also presented in tabular form in Table 5.
Plasma concentration vs. time data were subjected to noncompartmental pharmacokinetic (PK) analysis. To determined the measured dose of each compound, the dose formulation (50 μL) was aliquoted into a cluster tube at the time of dosing. Then 450 μL of DMSO was added to the tube to dilute it 10×. Then the diluted dosing solution was spiked into rat blank plasma with 100× dilution. The resulting plasma sample was analyzed along with the plasma samples collected from rats that were dosed with the compounds, using the same LC/MS/MS method.

[1] = male, Sprague Dawley, plasma, rat IV bolus, cassette, nominal 0.5 mg/kg, noncompartmental analysis

- clearance compared with Compound 10 (in rats, IV): lower
- t1/2 compared with Compound 10 (in rats, IV): longer
- concentration at 0.083 h (male, Sprague Dawley, plasma, rat IV bolus, cassette, nominal 0.5 mg/kg, 0.083 hours): 420 ng/mL
- concentration at 0.167 h (male, Sprague Dawley, plasma, rat IV bolus, cassette, nominal 0.5 mg/kg, 0.167 hours): 399 ng/mL
- concentration at 0.25 h (male, Sprague Dawley, plasma, rat IV bolus, cassette, nominal 0.5 mg/kg, 0.25 hours): 371 ng/mL
- concentration at 0.5 h (male, Sprague Dawley, plasma, rat IV bolus, cassette, nominal 0.5 mg/kg, 0.5 hours): 301 ng/mL
- concentration at 1 h (male, Sprague Dawley, plasma, rat IV bolus, cassette, nominal 0.5 mg/kg, 1 hour): 256 ng/mL
- concentration at 2 h (male, Sprague Dawley, plasma, rat IV bolus, cassette, nominal 0.5 mg/kg, 2 hours): 208 ng/mL
- concentration at 4 h (male, Sprague Dawley, plasma, rat IV bolus, cassette, nominal 0.5 mg/kg, 4 hours): 154 ng/mL
- concentration at 8 h (male, Sprague Dawley, plasma, rat IV bolus, cassette, nominal 0.5 mg/kg, 8 hours): 91.3 ng/mL
- concentration at 12 h (male, Sprague Dawley, plasma, rat IV bolus, cassette, nominal 0.5 mg/kg, 12 hours): 47.6 ng/mL
- concentration at 24 h (male, Sprague Dawley, plasma, rat IV bolus, cassette, nominal 0.5 mg/kg, 24 hours): 7.57 ng/mL
- AUC [1]: 937 ng·h/mL
- AUC(0-inf) [1]: 961 ng·h/mL
- C0 [1]: 211 ng/mL
- clearance [1]: 8.07 mL/min/kg
- half-life [1]: 4.4 h
- Vd (male, Sprague Dawley, plasma, rat IV bolus, cassette, nominal 0.5 mg/kg, noncompartmental analysis, read-out: Vss): 3 L/kg
SMILES: [2H]C([2H])([2H])c1cc(F)ccc1Oc1cc(C(F)(F)F)ccc1C(=O)Nc1cc[nH]c(=O)c1 [Compound 7, 2-(4-fluoro-2-(methyl-d3)phenoxy)-N-(2-oxo-1,2-dihydropyridin-4-yl)-4-(trifluoromethyl)benzamide]
